Test results: ChEMBL document CHEMBL5614405 (J Med Chem, 2024)
Calls of active or inactive are those of the source. The rule behind the calls is not given here.

Tests used:
[1] = Drug metabolism in New Zealand rabbit aqueous humor of eyeball assessed as (S)-3-amino-2-(4-(hydroxymethyl)phenyl)-N-(isoquinolin-6-yl)propanamide Dimethanesulfonate metabolite formation at 1.55 mM TOP administration on eye measured after 4 hrs by LC-MS/MS analysis; assay type: ADME, Oryctolagus cuniculus; conditions: in vivo, topical_or_ocular, 1550 µM
[2] = molecular target: T1, Rho-associated protein kinase 1 (Homo sapiens, UniProt Q13464); assay: Inhibition of ROCK1 (unknown origin) assessed as fold change at 3 uM incubated for 10 mins in presence of ATP by mobility shift assay relative to control
Target sequence in this assay (Q13464 2-1354 limits assumed): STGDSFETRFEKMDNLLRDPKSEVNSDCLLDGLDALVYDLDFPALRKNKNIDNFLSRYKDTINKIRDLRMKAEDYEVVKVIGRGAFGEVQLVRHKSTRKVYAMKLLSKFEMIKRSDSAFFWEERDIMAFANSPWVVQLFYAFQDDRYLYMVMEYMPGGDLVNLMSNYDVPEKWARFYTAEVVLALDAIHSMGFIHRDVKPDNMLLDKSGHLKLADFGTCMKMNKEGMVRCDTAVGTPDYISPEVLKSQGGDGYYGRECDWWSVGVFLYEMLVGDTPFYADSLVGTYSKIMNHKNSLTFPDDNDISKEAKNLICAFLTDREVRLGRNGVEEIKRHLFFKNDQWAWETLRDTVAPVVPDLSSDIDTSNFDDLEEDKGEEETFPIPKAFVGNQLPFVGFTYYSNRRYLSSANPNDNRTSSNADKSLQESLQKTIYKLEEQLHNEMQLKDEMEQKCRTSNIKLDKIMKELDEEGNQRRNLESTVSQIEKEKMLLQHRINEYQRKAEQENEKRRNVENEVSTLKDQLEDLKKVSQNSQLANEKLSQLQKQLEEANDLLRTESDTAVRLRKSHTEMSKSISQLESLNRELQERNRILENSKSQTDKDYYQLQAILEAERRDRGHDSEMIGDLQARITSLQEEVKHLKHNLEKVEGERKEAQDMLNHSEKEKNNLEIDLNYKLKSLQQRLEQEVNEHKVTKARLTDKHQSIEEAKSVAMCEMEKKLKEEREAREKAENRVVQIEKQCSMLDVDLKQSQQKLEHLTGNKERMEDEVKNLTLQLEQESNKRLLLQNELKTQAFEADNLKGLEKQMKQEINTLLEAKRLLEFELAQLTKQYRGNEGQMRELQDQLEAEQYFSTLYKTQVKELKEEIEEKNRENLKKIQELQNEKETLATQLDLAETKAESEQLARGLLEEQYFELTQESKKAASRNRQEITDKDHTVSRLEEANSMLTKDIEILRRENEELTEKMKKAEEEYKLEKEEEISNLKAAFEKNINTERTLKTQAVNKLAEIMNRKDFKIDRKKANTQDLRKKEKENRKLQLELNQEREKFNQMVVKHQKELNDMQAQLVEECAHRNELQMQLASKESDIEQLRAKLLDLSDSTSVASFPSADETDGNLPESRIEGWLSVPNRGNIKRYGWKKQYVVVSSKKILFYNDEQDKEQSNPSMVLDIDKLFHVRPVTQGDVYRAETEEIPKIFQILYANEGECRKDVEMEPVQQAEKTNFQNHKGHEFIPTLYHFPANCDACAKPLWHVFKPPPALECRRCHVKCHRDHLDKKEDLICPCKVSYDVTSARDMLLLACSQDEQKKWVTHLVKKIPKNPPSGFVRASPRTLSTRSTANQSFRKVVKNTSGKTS

[3] = Drug metabolism in New Zealand rabbit cornea assessed as (S)-3-amino-2-(4-(hydroxymethyl)phenyl)-N-(isoquinolin-6-yl)propanamide Dimethanesulfonate metabolite formation at 1.55 mM TOP administration on eye measured upto 6 hrs by LC-MS/MS analysis; assay type: ADME, tissue-based, Oryctolagus cuniculus; conditions: in vivo, topical_or_ocular, 1550 µM
[4] = Toxicity in New Zealand rabbit assessed as appearance of conjunctival congestion by measuring ocular irritation score at 0.03 % TOP administration on left eye measured after 7 days by draize eye irritation test; assay type: tissue-based, Oryctolagus cuniculus; conditions: in vivo, topical_or_ocular, 168 h, time 7 day
Mus musculus [5] = assay: Anti-glaucoma activity in magnetic microbead induced occlusion C57BL/6J mouse model assessed as increase in retinal ganglion cell population at 441.27 uM,TOP administrated on right eye thrice a day for 21 days by immunofluorescence based confocal microscopic analysis relative to Netarsudil; assay type: functional, organism-based; conditions: time 21.0 day
[6] = Drug metabolism in New Zealand rabbit cornea assessed as 3-(hydroxymethyl)benzoic acid metabolite formation at 1.55 mM TOP administration on eye measured after 4 hr by LC-MS/MS analysis; assay type: ADME, tissue-based, Oryctolagus cuniculus; conditions: in vivo, topical_or_ocular, 1550 µM
[7] = Drug metabolism in New Zealand rabbit aqueous humor of eyeball assessed as 3-(hydroxymethyl)benzoic acid metabolite formation at 1.55 mM TOP administration on eye measured after 4 to 6 hrs by LC-MS/MS analysis; assay type: ADME, Oryctolagus cuniculus; conditions: in vivo, topical_or_ocular, 1550 µM, time 4-6 hrs
[8] = molecular target: T1, Rho-associated protein kinase 1; assay: Inhibition of ROCK1 (unknown origin) incubated for 10 mins in presence of ATP by mobility shift assay
Target sequence in this assay (Q13464 whole entry): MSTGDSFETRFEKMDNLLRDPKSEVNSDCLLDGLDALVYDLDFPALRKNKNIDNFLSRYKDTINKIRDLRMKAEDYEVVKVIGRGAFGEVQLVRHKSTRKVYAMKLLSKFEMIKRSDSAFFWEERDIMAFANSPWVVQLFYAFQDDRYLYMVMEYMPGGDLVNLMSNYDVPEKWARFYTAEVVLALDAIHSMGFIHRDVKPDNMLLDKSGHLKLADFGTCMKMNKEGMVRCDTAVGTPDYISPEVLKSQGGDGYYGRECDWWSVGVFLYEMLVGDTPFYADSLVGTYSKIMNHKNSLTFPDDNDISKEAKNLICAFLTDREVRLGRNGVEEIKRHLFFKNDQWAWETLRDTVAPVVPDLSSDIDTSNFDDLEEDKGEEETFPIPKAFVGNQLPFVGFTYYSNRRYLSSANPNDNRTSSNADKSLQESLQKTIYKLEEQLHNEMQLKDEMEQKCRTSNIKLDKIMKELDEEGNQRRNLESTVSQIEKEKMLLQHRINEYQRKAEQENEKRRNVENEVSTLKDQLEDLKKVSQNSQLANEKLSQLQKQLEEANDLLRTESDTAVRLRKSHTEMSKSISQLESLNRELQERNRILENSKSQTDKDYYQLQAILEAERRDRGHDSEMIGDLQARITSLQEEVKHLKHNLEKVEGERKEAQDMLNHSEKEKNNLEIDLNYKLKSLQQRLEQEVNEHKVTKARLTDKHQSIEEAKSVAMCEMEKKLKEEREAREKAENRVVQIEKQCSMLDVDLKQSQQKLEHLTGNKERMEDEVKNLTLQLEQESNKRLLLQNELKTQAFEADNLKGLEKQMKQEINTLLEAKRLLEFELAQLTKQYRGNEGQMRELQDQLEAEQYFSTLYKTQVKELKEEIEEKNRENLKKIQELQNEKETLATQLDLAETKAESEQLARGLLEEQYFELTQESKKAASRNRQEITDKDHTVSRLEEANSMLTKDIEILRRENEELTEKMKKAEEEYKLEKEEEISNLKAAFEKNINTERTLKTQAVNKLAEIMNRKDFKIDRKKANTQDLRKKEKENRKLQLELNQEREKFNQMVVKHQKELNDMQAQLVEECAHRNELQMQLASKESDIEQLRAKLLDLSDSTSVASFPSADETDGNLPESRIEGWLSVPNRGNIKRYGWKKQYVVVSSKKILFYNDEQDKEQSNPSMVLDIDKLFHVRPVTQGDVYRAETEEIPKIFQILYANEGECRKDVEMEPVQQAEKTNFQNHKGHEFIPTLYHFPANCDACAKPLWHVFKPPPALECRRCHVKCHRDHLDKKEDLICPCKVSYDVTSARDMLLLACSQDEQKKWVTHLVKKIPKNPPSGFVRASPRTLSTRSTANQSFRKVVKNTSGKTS

Oryctolagus cuniculus [9] = assay: Anti-glaucoma activity in methylcellulose-induced acute intraocular hypertensive New Zealand rabbit model assessed as reduction in intraocular pressure at 441.27 uM,TOP administration on conjunctival sac measured after 3 hrs relative to Netarsudil; assay type: functional, organism-based
[10] = Drug metabolism in New Zealand rabbit aqueous humor of eyeball assessed as (S)-3-amino-2-(4-(hydroxymethyl)phenyl)-N-(isoquinolin-6-yl)propanamide Dimethanesulfonate metabolite formation at 1.55 mM TOP administration on eye measured after 4 to 6 hrs by LC-MS/MS analysis; assay type: ADME, tissue-based, Oryctolagus cuniculus; conditions: in vivo, topical_or_ocular, 1550 µM, time 4-6 hrs
[11] = Drug metabolism in New Zealand rabbit cornea assessed as 3-(hydroxymethyl)benzoic acid metabolite formation at 1.55 mM TOP administration on eye measured upto 3 hr by LC-MS/MS analysis; assay type: ADME, tissue-based, Oryctolagus cuniculus; conditions: in vivo, topical_or_ocular, 1550 µM
[12] = molecular target: T2, Rho-associated protein kinase 2 (Homo sapiens, UniProt O75116); assay: Inhibition of ROCK2 (unknown origin) assessed as fold change at 3 uM incubated for 60 mins in presence of ATP by mobility shift assay
Target sequence in this assay (O75116 whole entry, looked up): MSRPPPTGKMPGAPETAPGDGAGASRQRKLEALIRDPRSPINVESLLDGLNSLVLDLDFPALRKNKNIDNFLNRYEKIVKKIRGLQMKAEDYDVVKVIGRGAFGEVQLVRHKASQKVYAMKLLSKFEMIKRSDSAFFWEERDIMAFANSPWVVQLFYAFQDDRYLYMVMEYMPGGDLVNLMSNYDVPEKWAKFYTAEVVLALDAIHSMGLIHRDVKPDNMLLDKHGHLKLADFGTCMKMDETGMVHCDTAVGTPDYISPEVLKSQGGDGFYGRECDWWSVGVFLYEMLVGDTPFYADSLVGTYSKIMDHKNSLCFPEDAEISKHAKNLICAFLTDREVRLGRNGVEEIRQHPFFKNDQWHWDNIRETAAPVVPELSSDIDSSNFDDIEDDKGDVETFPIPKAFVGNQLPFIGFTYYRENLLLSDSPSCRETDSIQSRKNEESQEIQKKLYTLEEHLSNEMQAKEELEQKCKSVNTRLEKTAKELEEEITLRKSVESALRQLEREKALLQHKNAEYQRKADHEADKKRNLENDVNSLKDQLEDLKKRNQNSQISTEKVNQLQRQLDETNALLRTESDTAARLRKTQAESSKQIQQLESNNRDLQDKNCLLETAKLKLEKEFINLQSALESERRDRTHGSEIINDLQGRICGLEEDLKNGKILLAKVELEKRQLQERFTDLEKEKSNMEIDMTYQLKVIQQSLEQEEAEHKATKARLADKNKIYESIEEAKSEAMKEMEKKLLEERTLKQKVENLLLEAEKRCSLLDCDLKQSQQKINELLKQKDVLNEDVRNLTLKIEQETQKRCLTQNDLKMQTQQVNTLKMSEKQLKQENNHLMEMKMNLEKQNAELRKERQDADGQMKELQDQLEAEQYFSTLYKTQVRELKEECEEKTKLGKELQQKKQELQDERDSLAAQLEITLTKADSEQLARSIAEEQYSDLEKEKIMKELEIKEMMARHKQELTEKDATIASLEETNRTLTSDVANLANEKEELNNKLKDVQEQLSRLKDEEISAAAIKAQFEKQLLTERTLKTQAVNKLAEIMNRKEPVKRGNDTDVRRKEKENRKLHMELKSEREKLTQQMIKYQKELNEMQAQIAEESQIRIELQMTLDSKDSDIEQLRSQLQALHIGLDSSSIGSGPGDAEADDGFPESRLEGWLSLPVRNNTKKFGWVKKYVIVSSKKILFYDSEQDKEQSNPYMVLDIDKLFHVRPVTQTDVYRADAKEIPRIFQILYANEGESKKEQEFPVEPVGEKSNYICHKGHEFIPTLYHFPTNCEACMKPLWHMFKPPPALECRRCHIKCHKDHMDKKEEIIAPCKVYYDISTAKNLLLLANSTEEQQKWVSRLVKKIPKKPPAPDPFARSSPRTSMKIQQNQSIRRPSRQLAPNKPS

[13] = molecular target: T2, Rho-associated protein kinase 2; assay: Inhibition of ROCK2 (unknown origin) incubated for 60 mins in presence of ATP by mobility shift assay
Target sequence in this assay (O75116 whole entry): as the sequence (O75116 whole entry, looked up) above

[14] = Unbound drug concentration in New Zealand rabbit cornea at 1.55 mM TOP administration on eye measured upto 1 hr by LC-MS/MS analysis; assay type: ADME, tissue-based, Oryctolagus cuniculus; conditions: in vivo, topical_or_ocular, 1550 µM
Mus musculus [15] = assay: Anti-glaucoma activity in magnetic microbead induced occlusion C57BL/6J mouse model assessed as increase in retinal ganglion cell population at 441.27 uM,TOP administrated on right eye thrice a day for 21 days by immunofluorescence based confocal microscopic analysis; assay type: functional, organism-based; conditions: time 21.0 day
[16] = Toxicity in New Zealand rabbit assessed as appearance of conjunctival congestion by measuring ocular irritation score at 0.03 % TOP administration on left eye measured after 2 days by draize eye irritation test; assay type: tissue-based, Oryctolagus cuniculus; conditions: in vivo, topical_or_ocular, 48 h, time 2 day
[17] = Drug metabolism in New Zealand rabbit aqueous humor of eyeball assessed as 3-(hydroxymethyl)benzoic acid metabolite formation at 1.55 mM TOP administration on eye measured after 4 hrs by LC-MS/MS analysis; assay type: ADME, Oryctolagus cuniculus; conditions: in vivo, topical_or_ocular, 1550 µM
[18] = Toxicity in New Zealand rabbit assessed as appearance of conjunctival congestion by measuring ocular irritation score at 0.03 % TOP administration on left eye measured after 1 day by draize eye irritation test; assay type: tissue-based, Oryctolagus cuniculus; conditions: in vivo, topical_or_ocular, 24 h
[19] = Toxicity in New Zealand rabbit assessed as appearance of conjunctival congestion by measuring ocular irritation score at 0.03 % TOP administration on left eye measured after 3 days by draize eye irritation test; assay type: tissue-based, Oryctolagus cuniculus; conditions: in vivo, topical_or_ocular, 72 h, time 3 day
Oryctolagus cuniculus [20] = assay: Anti-glaucoma activity in methylcellulose-induced acute intraocular hypertensive New Zealand rabbit model assessed as reduction in intraocular pressure at 441.27 uM,TOP administration on conjunctival sac measured for 4 to 24 hrs relative to Netarsudil; assay type: functional, organism-based; conditions: time 4-24 hrs
[21] = Toxicity in chicken embryo chorioallantoic membrane assessed as irritation score at 1.55 mM measured after 5 mins by microscopic analysis relative to Netarsudil; assay type: tissue-based, Gallus gallus; conditions: in vivo, 1550 µM
Mus musculus [22] = assay: Anti-glaucoma activity in magnetic microbead induced occlusion C57BL/6J mouse model assessed as reduction in intraocular pressure at 441.27 uM,TOP administration on right eye measured after 1 hr by tonometric analysis; assay type: functional, organism-based
[23] = Toxicity in chicken embryo chorioallantoic membrane assessed as irritation score at 1.55 mM measured after 5 mins in presence of NS 2028 by microscopic analysis; assay type: tissue-based, Gallus gallus; conditions: in vivo, 1550 µM
[24] = Toxicity in New Zealand rabbit assessed as appearance of conjunctival congestion by measuring ocular irritation score at 0.03 % TOP administration on left eye measured after 4 days by draize eye irritation test; assay type: tissue-based, Oryctolagus cuniculus; conditions: in vivo, topical_or_ocular, 96 h, time 4 day
[25] = Toxicity in New Zealand rabbit assessed as appearance of conjunctival congestion by measuring ocular irritation score at 0.03 % TOP administration on left eye measured after 6 days by draize eye irritation test; assay type: tissue-based, Oryctolagus cuniculus; conditions: in vivo, topical_or_ocular, 144 h, time 6 day
Oryctolagus cuniculus [26] = assay: Anti-glaucoma activity in methylcellulose-induced acute intraocular hypertensive New Zealand rabbit model assessed as reduction in intraocular pressure at 1.55 mM,TOP administration on conjunctival sac measured upto 24 hrs relative to Netarsudil; assay type: functional, organism-based
[27] = Drug metabolism in New Zealand rabbit aqueous humor of eyeball assessed as 3-(hydroxymethyl)benzoic acid metabolite formation at 1.55 mM TOP administration on eye measured after 4 hr by LC-MS/MS analysis; assay type: ADME, tissue-based, Oryctolagus cuniculus; conditions: in vivo, topical_or_ocular, 1550 µM
[28] = Unbound drug concentration in New Zealand rabbit cornea at 1.55 mM TOP administration on eye measured upto 3 hr by LC-MS/MS analysis; assay type: ADME, tissue-based, Oryctolagus cuniculus; conditions: in vivo, topical_or_ocular, 1550 µM
Oryctolagus cuniculus [29] = assay: Anti-glaucoma activity in methylcellulose-induced acute intraocular hypertensive New Zealand rabbit model assessed as reduction in intraocular pressure at 1.55 mM,TOP administration on conjunctival sac measured upto 24 hrs relative to (R)-4-(3-amino-1-(isoquinolin-6-ylamino)-1-oxopropan-2-yl)benzyl 3-((nitrooxy)methyl)benzoate Dimethanesulfonate; assay type: functional, organism-based
[30] = Toxicity in chicken embryo chorioallantoic membrane assessed as irritation score at 1.55 mM measured after 5 mins in presence of PTIO by microscopic analysis; assay type: tissue-based, Gallus gallus; conditions: in vivo, 1550 µM
[31] = Drug metabolism in New Zealand rabbit cornea assessed as 3-(hydroxymethyl)benzoic acid metabolite formation at 1.55 mM TOP administration on eye measured upto 1 hr by LC-MS/MS analysis; assay type: ADME, tissue-based, Oryctolagus cuniculus; conditions: in vivo, topical_or_ocular, 1550 µM
[32] = Toxicity in New Zealand rabbit assessed as appearance of conjunctival congestion by measuring ocular irritation score at 0.03 % TOP administration on left eye measured after 5 days by draize eye irritation test; assay type: tissue-based, Oryctolagus cuniculus; conditions: in vivo, topical_or_ocular, 120 h, time 5 day
[33] = Unbound drug concentration in New Zealand rabbit aqueous humor of eyeball at 1.55 mM TOP administration on eye measured upto 6 hr by LC-MS/MS analysis; assay type: ADME, tissue-based, Oryctolagus cuniculus; conditions: in vivo, topical_or_ocular, 1550 µM
[34] = Drug metabolism in New Zealand rabbit aqueous humor of eyeball assessed as 3-((nitrooxy)methyl)benzoic acid metabolite formation at 1.55 mM TOP administration on eye measured upto 6 hrs by LC-MS/MS analysis; assay type: ADME, tissue-based, Oryctolagus cuniculus; conditions: in vivo, topical_or_ocular, 1550 µM
[35] = Drug metabolism in New Zealand rabbit cornea assessed as 3-((nitrooxy)methyl)benzoic acid metabolite formation at 1.55 mM TOP administration on eye measured upto 6 hr by LC-MS/MS analysis; assay type: ADME, tissue-based, Oryctolagus cuniculus; conditions: in vivo, topical_or_ocular, 1550 µM
Mus musculus [36] = assay: Anti-glaucoma activity in magnetic microbead induced occlusion C57BL/6J mouse model assessed as reduction in intraocular pressure at 441.27 uM,TOP administration on right eye measured upto 8 hr by tonometric analysis relative to Netarsudil; assay type: functional, organism-based
Mus musculus [37] = assay: Anti-glaucoma activity in magnetic microbead induced occlusion C57BL/6J mouse model assessed as increase in retinal ganglion cell density at 441.27 uM,TOP administrated on right eye thrice a day for 21 days by immunofluorescence based confocal microscopic analysis relative to control; assay type: functional, organism-based; conditions: time 21.0 day

CS(=O)(=O)O.CS(=O)(=O)O.NC[C@@H](C(=O)Nc1ccc2cnccc2c1)c1ccc(COC(=O)c2cccc(CO[N+](=O)[O-])c2)cc1
Drug metabolism [1]: 0.96 ng/mL
fold change (FC) [2]: 28
Drug metabolism [3]: Metabolite_Detected
Activity [4]: 0.67
Activity (Mus musculus [5]): Active
Drug metabolism [6]: 114.73 ng/mg
Drug metabolism [7]: Metabolite_Notdetected
IC50 [8]: 1.26 nM
Activity (Oryctolagus cuniculus [9]): Active
Drug metabolism [10]: Metabolite_Notdetected
Drug metabolism [11]: Metabolite_Notdetected
fold change (FC) [12]: 38
IC50 [13]: 0.66 nM
Drug uptake(free) [14]: 14.12 ng/g
Activity (Mus musculus [15]): Active
Activity [16]: 1
Drug metabolism [17]: 62.95 ng/mL
Activity [18]: 1.67
Activity [19]: 1.67
Activity (Oryctolagus cuniculus [20]): inactive
Activity [21]: Toxic
Activity (Mus musculus [22]): Active
Activity [23]: Toxic
Activity [24]: 1.67
Activity [25]: 1
Activity (Oryctolagus cuniculus [26]): Active
Drug metabolism [27]: 60.87 ng/mL
Drug uptake(free) [28]: Not Active
Activity (Oryctolagus cuniculus [29]): Active
Activity [30]: Toxic
Drug metabolism [31]: 371.53 ng/g
Activity [32]: 0.67
Drug uptake(free) [33]: Active
Drug metabolism [34]: Metabolite_Detected
Drug metabolism [35]: Metabolite_Detected
Activity (Mus musculus [36]): Active
Activity (Mus musculus [37]): Active
